Among the data in ChEMBL document CHEMBL4020745 (Bioorg Med Chem Lett, 2017) are Activity, EC50 and IC50 values, retold here.

The test system of the first data set is HEK293. In words: Cytotoxicity against HEK293 cells harboring beta-galactosidase expression plasmid assessed as effect on beta-galactosidase activity. The note with it: human. It counts as cell-based.
Regarding `CN(CCOc1ccc(CC2SC(=O)NC2=O)cc1)c1nc2ccccc2s1` (stereo unspecified), the Activity result was “Non-Toxic”.

For `CN(CCOc1ccc(/C=C2\SC(=O)NC2=O)cc1)c1ccc2ccccc2c1`, the Activity entry is on record as “Non-Toxic”.

For `CN(CCOc1ccc(/C=C2\SC(=O)NC2=O)cc1)c1nccs1`, the Activity result was “Non-Toxic”.

For the compound `CCN(CCOc1ccc(CC2SC(=O)NC2=O)cc1)c1nc2ccccc2s1` (stereo unspecified), the Activity entry is on record as “Non-Toxic”.

As for `CCN(CCOc1ccc(/C=C2\SC(=O)NC2=O)cc1)c1ccccn1`, the Activity entry is “Non-Toxic”.

`CN(CCOc1ccc(/C=C2\SC(=O)NC2=O)cc1)c1nc2ccccc2[nH]1`: the Activity entry is “Non-Toxic”.

In the case of `CCN(CCOc1ccc(/C=C2\SC(=O)NC2=O)cc1)c1nc2ccccc2s1`, the Activity result is recorded as “Non-Toxic”.

With `O=C1NC(=O)/C(=C/c2ccc(OCCNc3nc4ccccc4s3)cc2)S1`, the Activity entry is “Non-Toxic”.

`CCN(CCOc1ccc(CC2SC(=O)NC2=O)cc1)c1ccccn1` (stereo unspecified): the Activity entry is on record as “Non-Toxic”.

For the compound `CC(C)N(CCOc1ccc(CC2SC(=O)NC2=O)cc1)c1nc2ccccc2s1` (stereo unspecified), the Activity entry was “Non-Toxic”.

For `CN(CCOc1ccc(/C=C2\SC(=O)NC2=O)cc1)c1nc2ccccc2s1`, the Activity result is recorded as “Non-Toxic”.

For the compound `CCc1ccc(CCOc2ccc(CC3SC(=O)NC3=O)cc2)nc1` (stereo unspecified) [PIOGLITAZONE], the Activity entry is “Non-Toxic”.

Consider `CN(CCOc1ccc(CC2SC(=O)NC2=O)cc1)c1ccccn1` (stereo unspecified) [ROSIGLITAZONE], for which the Activity entry is on record as “Non-Toxic”.

In another data set the target is T1, Peroxisome proliferator-activated receptor gamma (Homo sapiens, UniProt P37231).
T1 sequence (P37231 whole entry): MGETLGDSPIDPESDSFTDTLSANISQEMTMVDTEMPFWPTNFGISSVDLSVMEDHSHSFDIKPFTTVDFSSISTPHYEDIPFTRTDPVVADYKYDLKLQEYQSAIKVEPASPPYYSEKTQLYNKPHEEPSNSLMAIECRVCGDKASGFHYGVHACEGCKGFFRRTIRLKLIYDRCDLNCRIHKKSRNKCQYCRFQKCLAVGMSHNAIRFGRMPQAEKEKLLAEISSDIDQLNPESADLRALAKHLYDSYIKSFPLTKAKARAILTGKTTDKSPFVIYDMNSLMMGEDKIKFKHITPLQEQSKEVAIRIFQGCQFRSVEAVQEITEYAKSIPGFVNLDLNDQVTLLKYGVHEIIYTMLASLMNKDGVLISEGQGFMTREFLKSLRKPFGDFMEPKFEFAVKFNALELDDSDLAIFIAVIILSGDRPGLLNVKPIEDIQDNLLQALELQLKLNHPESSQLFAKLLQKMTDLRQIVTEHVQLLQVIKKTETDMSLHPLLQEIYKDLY
Put plainly: Transactivation activity at Gal4 fused […] human PPARgamma LBD expressed in HEK293 cells after 24 hrs by luciferase reporter gene assay. The class given is cell-based.
Details: not given
A general note: In a reporter assay the amount or activity of a reporter protein is the signal.
`CN(CCOc1ccc(CC2SC(=O)NC2=O)cc1)c1nc2ccccc2s1` (stereo unspecified): it took 0.057 µM to reach a half-maximal effect (EC50).

Take `CN(CCOc1ccc(/C=C2\SC(=O)NC2=O)cc1)c1ccc2ccccc2c1`: the EC50 – broadly, the concentration giving half of the maximal effect – amounted to 1.6 µM.

`CN(CCOc1ccc(/C=C2\SC(=O)NC2=O)cc1)c1nccs1`: the EC50 came out at 0.7 µM. Against the preceding compound, the EC50 is about 2.3-fold lower.

In turn, `CCN(CCOc1ccc(CC2SC(=O)NC2=O)cc1)c1nc2ccccc2s1` (stereo unspecified) gave an EC50 of 0.052 µM.

In turn, `CCN(CCOc1ccc(/C=C2\SC(=O)NC2=O)cc1)c1ccccn1` returned an EC50 of 0.36 µM.

`CN(CCOc1ccc(/C=C2\SC(=O)NC2=O)cc1)c1nc2ccccc2[nH]1` displayed an EC50 of 3.4 µM. This EC50 lies about 9.4-fold higher than the previous one.

`CCN(CCOc1ccc(/C=C2\SC(=O)NC2=O)cc1)c1nc2ccccc2s1` came in with an EC50 of 0.82 µM.

The compound `O=C1NC(=O)/C(=C/c2ccc(OCCNc3nc4ccccc4s3)cc2)S1` yielded an EC50 of 0.053 µM.

Consider `CCN(CCOc1ccc(CC2SC(=O)NC2=O)cc1)c1ccccn1` (stereo unspecified), for which a half-maximal response (EC50) required 0.54 µM.

Consider `CC(C)N(CCOc1ccc(CC2SC(=O)NC2=O)cc1)c1nc2ccccc2s1` (stereo unspecified), for which the EC50 is 0.53 µM.

`CN(CCOc1ccc(/C=C2\SC(=O)NC2=O)cc1)c1nc2ccccc2s1`: the EC50 turned out to be 0.31 µM.

The next data set concerns the target T1, Peroxisome proliferator-activated receptor gamma. Put plainly: Transrepression activity at human PPARgamma expressed in HEK293 cells assessed as inhibition of TNFalpha induced NF-kappaB promoter activity pretreated for 4 hrs followed by TNFalpha stimulation after 3 hrs by luciferase reporter gene assay. It counts as cell-based.
Details: not given
On to `CN(CCOc1ccc(CC2SC(=O)NC2=O)cc1)c1nc2ccccc2s1` (stereo unspecified), for which the IC50 (as a rule, the concentration that gives 50% inhibition) was 20 µM.

`CN(CCOc1ccc(/C=C2\SC(=O)NC2=O)cc1)c1ccc2ccccc2c1`: the IC50 worked out at 40 µM.

Consider `CN(CCOc1ccc(/C=C2\SC(=O)NC2=O)cc1)c1nccs1`, for which the IC50 was found to be 42 µM.

Turning to `CCN(CCOc1ccc(CC2SC(=O)NC2=O)cc1)c1nc2ccccc2s1` (stereo unspecified), the IC50 was found to be 25 µM.

For the compound `CCN(CCOc1ccc(/C=C2\SC(=O)NC2=O)cc1)c1ccccn1`, the IC50 is 15 µM.

For the compound `CN(CCOc1ccc(/C=C2\SC(=O)NC2=O)cc1)c1nc2ccccc2[nH]1`, the IC50 amounted to 38 µM.

For the compound `CCN(CCOc1ccc(/C=C2\SC(=O)NC2=O)cc1)c1nc2ccccc2s1`, the IC50 is 17 µM.

Consider `O=C1NC(=O)/C(=C/c2ccc(OCCNc3nc4ccccc4s3)cc2)S1`, for which the IC50 amounted to 14 µM.

As to `CCN(CCOc1ccc(CC2SC(=O)NC2=O)cc1)c1ccccn1` (stereo unspecified), the IC50 came out at 21 µM.

With `CC(C)N(CCOc1ccc(CC2SC(=O)NC2=O)cc1)c1nc2ccccc2s1` (stereo unspecified), the IC50 was determined as 20 µM.

`CN(CCOc1ccc(/C=C2\SC(=O)NC2=O)cc1)c1nc2ccccc2s1`: the half-inhibitory concentration (IC50) is 13 µM.

Test system in a further data set: not listed separately
Put plainly: Inhibition of TNFalpha induced NF-kappaB (unknown origin) activation expressed in PPARgamma deficient HEK293 cells pretreated for 4 hrs followed by TNFalpha stimulation after 3 hrs by luciferase reporter gene assay. The class given is cell-based. The note with it: Homo sapiens.
Consider `O=C1NC(=O)/C(=C/c2ccc(OCCNc3nc4ccccc4s3)cc2)S1`, for which the IC50 was 29 µM.
